Results as given in the NIST ThermoML archive (doi:10.1021/acs.jced.8b00067).
“And” between values parts separate entries of the source, which are not always exact repeats. Equal values may be shown once.

What was measured:
[1] = xn = mol fraction of the nth substance listed; conditions: 101.3 kPa, Liquid, Vibrating tube method
[2] = 101.3 kPa, Liquid, Vibrating tube method

CCCO [propan-1-ol] + ClCCCl
[1], x1 = 1
Conditions | mass density [kg/m3]
288.15 K | 807.86
298.15 K | 799.78
308.15 K | 791.71
318.15 K | 783.64

CC(C)O [propan-2-ol] + ClCCCl
[1], x1 = 1
Conditions | mass density [kg/m3]
288.15 K | 789.68
298.15 K | 781.08
308.15 K | 772.48
318.15 K | 763.88

ClCCCl [1,2-dichloroethane] + C1COCCO1
mass density [kg/m3], [1]
Conditions | 288.15 K | 298.15 K | 308.15 K | 318.15 K
x2 = 0 | 1260.35 | 1245.75 | 1231.16 | 1216.56
x2 = 0.05 | 1247.73 | 1233.53 | 1219.2 | 1204.74
x2 = 0.15 | 1223.15 | 1209.44 | 1195.6 | 1181.63
x2 = 0.25 | 1199.18 | 1185.91 | 1172.52 | 1159.01
x2 = 0.35 | 1175.98 | 1163.09 | 1150.11 | 1137.01
x2 = 0.45 | 1153.2 | 1140.69 | 1128.08 | 1115.36
x2 = 0.5 | 1142.13 | 1129.79 | 1117.34 | 1104.79
x2 = 0.55 | 1131.22 | 1119.02 | 1106.74 | 1094.34
x2 = 0.65 | 1109.63 | 1097.72 | 1085.72 | 1073.62
x2 = 0.75 | 1088.81 | 1077.13 | 1065.38 | 1053.55
x2 = 0.85 | 1068.59 | 1057.12 | 1045.59 | 1033.98
x2 = 0.95 | 1048.8 | 1037.49 | 1026.13 | 1014.72

ClCCCl [1,2-dichloroethane] + CCCO
mass density, [1]
Conditions | 288.15 K | 298.15 K | 308.15 K | 318.15 K
x2 = 0 | 1260.35 kg/m3 | 1245.75 kg/m3 | 1231.16 kg/m3 | 1216.56 kg/m3
x2 = 0.026 | 1248.39 kg/m3 | 1234.01 kg/m3 | 1219.5 kg/m3 | 1204.86 kg/m3
x2 = 0.05 | 1237.53 kg/m3 and 1237.37 kg/m3 | 1223.22 kg/m3 and 1223.08 kg/m3 | 1208.79 kg/m3 and 1208.64 kg/m3 | 1194.22 kg/m3 and 1194.08 kg/m3
x2 = 0.1 | 1215.38 kg/m3 | 1201.26 kg/m3 | 1187.01 kg/m3 | 1172.6 kg/m3
x2 = 0.122 | 1205.69 kg/m3 | 1191.67 kg/m3 | 1177.5 kg/m3 | 1163.18 kg/m3
x2 = 0.149 | 1193.33 kg/m3 | 1179.47 kg/m3 | 1165.44 kg/m3 | 1151.24 kg/m3
x2 = 0.25 | 1149.08 kg/m3 | 1135.78 kg/m3 | 1122.28 kg/m3 | 1108.59 kg/m3
x2 = 0.35 | 1104.87 kg/m3 | 1092.18 kg/m3 | 1079.29 kg/m3 | 1066.19 kg/m3
x2 = 0.45 | 1060.3 kg/m3 | 1048.27 kg/m3 | 1036.04 kg/m3 | 1023.57 kg/m3
x2 = 0.55 | 1015.43 kg/m3 | 1004.09 kg/m3 | 992.55 kg/m3 | 980.78 kg/m3
x2 = 0.645 | 972.3 kg/m3 | 961.66 kg/m3 | 950.81 kg/m3 | 939.73 kg/m3
x2 = 0.75 | 924.58 kg/m3 | 914.71 kg/m3 | 904.65 kg/m3 | 894.38 kg/m3
x2 = 0.85 | 878.59 kg/m3 | 869.49 kg/m3 | 860.21 kg/m3 | 850.73 kg/m3
x2 = 0.899 | 855.66 kg/m3 | 846.93 kg/m3 | 838.05 kg/m3 | 828.97 kg/m3
x2 = 0.95 | 831.69 kg/m3 | 823.36 kg/m3 | 814.89 kg/m3 | 806.24 kg/m3
x2 = 0.974 | 820.39 kg/m3 | 812.24 kg/m3 | 803.95 kg/m3 | 795.49 kg/m3
x2 = 0.975 | 819.73 kg/m3 | 811.6 kg/m3 | 803.33 kg/m3 | 794.89 kg/m3

CC(C)O [propan-2-ol] + C1COCCO1
[1], x2 = 0
Conditions | mass density [kg/m3]
288.15 K | 789.68
298.15 K | 781.08
308.15 K | 772.48
318.15 K | 763.88

ClCCCl [1,2-dichloroethane] + CC(C)O
mass density [kg/m3], [1]
Conditions | 288.15 K | 298.15 K | 308.15 K | 318.15 K
x2 = 0 | 1260.35 | 1245.75 | 1231.16 | 1216.56
x2 = 0.05 | 1235.77 | 1221.42 | 1206.94 | 1192.32
x2 = 0.15 | 1188.35 | 1174.26 | 1160 | 1145.58
x2 = 0.25 | 1141.45 | 1127.77 | 1113.89 | 1099.81
x2 = 0.35 | 1094.84 | 1081.66 | 1068.25 | 1054.61
x2 = 0.45 | 1048.69 | 1036.08 | 1023.22 | 1010.09
x2 = 0.5 | 1025.43 | 1013.12 | 1000.56 | 987.72
x2 = 0.55 | 1001.94 | 989.96 | 977.71 | 965.17
x2 = 0.65 | 955.61 | 944.31 | 932.73 | 920.85
x2 = 0.75 | 908.94 | 898.38 | 887.54 | 876.36
x2 = 0.849 | 862.18 | 852.45 | 842.41 | 832.03
x2 = 0.949 | 814.66 | 805.84 | 796.72 | 787.26
x2 = 0.95 | 814.18 | 805.36 | 796.25 | 786.79

C1COCCO1 [1,4-dioxane] + CCCO
mass density, [1]
Conditions | 288.15 K | 298.15 K | 308.15 K | 318.15 K
x1 = 0.05 | 820.78 kg/m3 | 812.62 kg/m3 | 804.33 kg/m3 | 795.88 kg/m3
x1 = 0.15 | 846.12 kg/m3 | 837.54 kg/m3 | 828.82 kg/m3 | 819.95 kg/m3
x1 = 0.249 | 870.65 kg/m3 | 861.62 kg/m3 | 852.49 kg/m3 | 843.22 kg/m3
x1 = 0.35 | 894.72 kg/m3 and 894.75 kg/m3 | 885.38 kg/m3 and 885.41 kg/m3 | 875.91 kg/m3 and 875.94 kg/m3 | 866.3 kg/m3 and 866.33 kg/m3
x1 = 0.45 | 918.23 kg/m3 | 908.54 kg/m3 | 898.73 kg/m3 | 888.78 kg/m3
x1 = 0.496 | 928.74 kg/m3 | 918.89 kg/m3 | 908.94 kg/m3 | 898.85 kg/m3
x1 = 0.55 | 941.07 kg/m3 and 941.11 kg/m3 | 931.06 kg/m3 and 931.09 kg/m3 | 920.95 kg/m3 and 920.97 kg/m3 | 910.71 kg/m3 and 910.73 kg/m3
x1 = 0.65 | 963.51 kg/m3 | 953.2 kg/m3 | 942.79 kg/m3 | 932.28 kg/m3
x1 = 0.75 | 985.54 kg/m3 and 985.58 kg/m3 | 974.94 kg/m3 and 974.98 kg/m3 | 964.26 kg/m3 and 964.29 kg/m3 | 953.5 kg/m3 and 953.51 kg/m3
x1 = 0.849 | 1006.97 kg/m3 | 996.12 kg/m3 | 985.2 kg/m3 | 974.19 kg/m3
x1 = 0.948 | 1028.13 kg/m3 | 1017.05 kg/m3 | 1005.9 kg/m3 | 994.68 kg/m3
x1 = 0.95 | 1028.45 kg/m3 | 1017.36 kg/m3 | 1006.21 kg/m3 | 995 kg/m3
x1 = 1 | 1039.12 kg/m3 | 1027.84 kg/m3 | 1016.57 kg/m3 | 1005.29 kg/m3

CCCO [propan-1-ol] + C1COCCO1
[1], x2 = 0
Conditions | mass density [kg/m3]
288.15 K | 807.86
298.15 K | 799.78
308.15 K | 791.71
318.15 K | 783.64

C1COCCO1 [1,4-dioxane] + CC(C)O
mass density [kg/m3], [1]
Conditions | 288.15 K | 298.15 K | 308.15 K | 318.15 K
x1 = 0.05 | 802.95 | 794.39 | 785.56 | 776.41
x1 = 0.15 | 829.25 | 820.23 | 810.98 | 801.46
x1 = 0.25 | 855.23 | 845.83 | 836.22 | 826.38
x1 = 0.35 | 880.71 | 870.97 | 861.05 | 850.93
x1 = 0.449 | 905.45 | 895.43 | 885.24 | 874.87
x1 = 0.5 | 918.21 | 908.04 | 897.73 | 887.25
x1 = 0.55 | 930.47 | 920.18 | 909.74 | 899.16
x1 = 0.651 | 955.14 | 944.61 | 933.97 | 923.2
x1 = 0.75 | 979.12 | 968.37 | 957.54 | 946.6
x1 = 0.85 | 1003.42 | 992.5 | 981.49 | 970.39
x1 = 0.95 | 1027.3 | 1016.17 | 1004.99 | 993.74
x1 = 1 | 1039.12 | 1027.84 | 1016.57 | 1005.29

C1COCCO1 [1,4-dioxane]
[2]
Conditions | mass density [kg/m3]
288.15 K | 1039.12
298.15 K | 1027.84
308.15 K | 1016.57
318.15 K | 1005.29

CC(C)O [propan-2-ol]
[2]
Conditions | mass density [kg/m3]
288.15 K | 789.68
298.15 K | 781.08
308.15 K | 772.48
318.15 K | 763.88

CCCO [propan-1-ol]
[2]
Conditions | mass density [kg/m3]
288.15 K | 807.86
298.15 K | 799.78
308.15 K | 791.71
318.15 K | 783.64

ClCCCl [1,2-dichloroethane]
[2]
Conditions | mass density
288.15 K | 1260.35 kg/m3
298.15 K | 1245.75 kg/m3 and 1245.76 kg/m3
308.15 K | 1231.16 kg/m3
318.15 K | 1216.56 kg/m3

C1COCCO1 [1,4-dioxane] + ClCCCl
[1], x1 = 1
Conditions | mass density [kg/m3]
288.15 K | 1039.12
298.15 K | 1027.84
308.15 K | 1016.57
318.15 K | 1005.29
